{
  "source": "patent US6541486B1",
  "about": "“Bis-benzimidazole compounds and analogs thereof for inhibiting cell death” (Elan Pharma International Ltd., priority 1999, dated 2003)",
  "key": {"[1]": {"test_system": "rat middle cerebral artery occlusion (MCAO) model of focal ischemia", "assay": "MCAO in vivo stroke model: ischemic, infarct and edema volumes", "conditions": "for Reducing post-ischemic damage (in words): rats; for % Protection, Cortical infarct volume / % Protection, Cortical penumbra / % Protection, Edema / % Protection, Subcortical infarct volume / % Protection, Subcortical penumbra / % Protection, Total infarct volume / % Protection, Total ischemic volume: rat", "method": "Compounds were administered by either an IV (intravenous) or ICV (intracerebroventricular) route in the MCAO model, described above and in Example 18. The extent of ischemic damage in the absence and presence of compound was assessed by visualization of coronal brain slices. Conversion of 2,3,5-triphenyltetrazolium chloride (TTC) to formazan in normal tissue produces a red color. Unstained areas (white) constitute the infarct, whereas pink areas between white (infarction) and red stained areas (normal brain) define the ischemia penumbra. Preliminary studies confirmed that tissues stained pink contained mixed populations of living and dead cells.\nResults are also illustrated in FIGS. 2-3 for ICV administration and FIGS. 4-5 for IV administration.\nAdult male Wistar rats weighing 310-380 g were used. Animals were fasted overnight but allowed free access to water. Anesthesia was induced and maintained with 3% isoflurane in […]. Systemic blood pressure was recorded before, during and after middle cerebral artery occlusion (MCAO) and immediately before administering the test compound. Subjects received test compound SNX 912, 5 mg/kg ICV pre-MCAO, or 25 mg/kg IV immediately following reperfusion, after two hours MCAO, as compared to control subjects, which received deionized water. Temperature was controlled and recorded before, during and following reperfusion. After reperfusion, temperature was measured every hour for 4 hrs post-reperfusion.\nAll animals were subjected to 2 hr of MCAO using the intraluminal filament technique of Koizume et al. (1986) as modified by Zhao et al. (1994). A midline surgical incision was made to expose the right common, external and internal carotid arteries. The common cartotid, external carotid and occipital arteries were tightly ligated, and the internal carotid artery was temporarily closed with a microvascular clip. A small incision was made in the common carotid artery and a nylon monofilament was inserted into the internal carotid artery through the common carotid artery. The filament was then carefully advanced 19 mm cephalad to occlude the middle cerebral artery at its site of origin within the Circle of Willis. […] After 2 hr of MCAO, the animals were re-anesthetized with 1.5% halothane, and the occlude filament was withdrawn to allow reperfusion.\nBecause MCAO by the intraluminal filament technique can give rise to intra- and post-ischemia hyperthermia, rectal temperature was controlled by external heating and cooling for 6 hrs after initiating MCAO. Rectal temperature was maintained at 37.5+/−0.5° C.\nAnimals were killed 24 hr post-reperfusion by CO2 asphyxiation. Following asphyxiation, the brains were quickly removed and chilled in ice cold 0.9% saline for 10 min. To visualize the extent of ischemic damage, seven 2 mm thick coronal slices were cut from each brain with a tissue slicer beginning with 1 mm posterior to the anterior pole. The slices were immersed in a 0.9% saline solution containing 1.0% 2,3,5-tripheyltetrazolim chloride (TTC) and incubated at 37° C. for 30 minutes, and observed for the presence of formazan (red), which is produced by the reduction of TTC by endogenous dehydrogenase activity in normal living tissues."}, "[2]": {"test_system": "Oxygen/Glucose Deprived RGCs (retinal ganglion cells)", "assay": "Protection of oxygen/glucose deprived (OGD) retinal ganglion cells, EC50", "conditions": "overall judgement", "experimental": "Each compound was added to control cells and to cells deprived of oxygen and glucose for the time period from 30 minutes prior to OGD, during OGD, and for 24 and 48 hours after OGD.\nRGCs from postnatal day 8 (P8) Sprague-Dawley rats were purified as previously described (Barres et al., 1988; Meyer-Franke et al., 1995). Purified retinal ganglion cells were plated onto tissue culture plastic precoated with poly-D-lysine and merosin, and cultured in serum-free Neurobasal medium (Gibco) containing various supplements.\nApproximately 5,000 purified RGCs were cultured in 96-well plates (Falcon), precoated with poly-D-lysine (PDL, 70 kD, 10 mg/ml; Sigma) and merosin (2 mg/ml; Gibco). The RGCs were cultured in serum-free Neurobasal medium (Brewer et al., 1993; Gibco) containing Sato-Bottenstein and B27 (Gibco) supplement, insulin (Sigma, 5 mg/ml), brain-derived neurotrophic factor (BDNF, 25 ng/ml; Preprotech), ciliary neurotrophic factor (CNTF, 20 ng/ml; Preprotech) and forskolin (10 mM, Sigma). The percentage of surviving cells was assessed at 3, 7, and 14 days by the MTT assay.\nRetinal ganglion cells were grown in 96-well plates for 5 days in serum-free medium as described above. On the sixth day cells were washed three times in a salt solution, e.g. Earle's balanced salt solution (EBSS, Gibco), containing glucose for control cells, and lacking glucose for test cells (oxygen/glucose-deprived cells). Control cells were further incubated in a 5% CO2 incubator while OGD cells were deprived of oxygen in an anaerobic chamber (for 3 hours). Test compounds were added to control cells and OGD cells for the time period from 30 minutes prior to OGD, during OGD, and for 24 and 48 hours after OGD.\nAfter 3 hours OGD, control and test cells were transferred to growth medium with glucose and cultured an additional 48 hours in a 5% CO2 incubator, followed by a determination of cell viability using MTT, propidium iodide and annexin assays.\nFor the cell viability assay, MTT was added to culture and incubated at 37° C. for 1 hr. […] Viable and dead cells are counted by bright field microscopy at various times, e.g. 24, 48, or 72 hours after oxygen/glucose and/or growth factor deprivation. All values are reported as the mean (average) +/− the standard error of the mean (SEM) for at least three replicate cultures."}, "[3]": {"test_system": "OGD cells (retinal ganglion cells)", "assay": "Increase in survival of OGD cells at fixed concentrations (similar assay)", "type": "cell-based, rat"}, "[4]": {"test_system": "Oxygen/Glucose Deprived Cardiac Myocytes", "assay": "Protection of oxygen/glucose deprived cardiac myocytes", "type": "cell-based", "method": "The hypoxic cardiac myocyte (CM) has been used as a simplified model of myocardial ischemia. In the present study, cultures of CM's were deprived of oxygen and glucose for 8 hours, then also exposed to 24-48 hours reoxygenation. It is known that reperfusion of the damaged areas can be one of the major mechanisms of myocardial cellular injury. […] Cell survival was quantitated as described above."}, "[5]": {"conditions": "IV (25 mg/kg) immediately following reperfusion after 2 h MCAO"}, "[6]": {"conditions": "8 hrs OGD / 24 hrs reoxygenation"}, "[7]": {"conditions": "8 hrs OGD / 48 hrs reoxygenation"}},
  "note": "“Also recorded” adds a separate entry of the source.",
  "data": [
    {"smiles": "Nc1cccc2[nH]c(Cc3nc4ccccc4[nH]3)nc12", "note": "[SNX 912, 2-(benzimidazol-2′-yl)methyl-4-amino benzimidazole]", "values": [
      {"measurement": "Reducing post-ischemic damage (in words)", "setting": "[1]; 5 mg/kg ICV", "value": "effective"},
      {"measurement": "Reducing post-ischemic damage (in words)", "setting": "[1]; 25 mg/kg IV", "value": "effective"},
      {"measurement": "% Protection, Cortical infarct volume", "setting": "[1]; ICV (5 mg/kg) pre-MCAO", "value": 76, "unit": "%"},
      {"measurement": "% Protection, Cortical penumbra", "setting": "[1]; ICV (5 mg/kg) pre-MCAO", "value": 30, "unit": "%"},
      {"measurement": "% Protection, Edema", "setting": "[1]; ICV (5 mg/kg) pre-MCAO", "value": 80, "unit": "%"},
      {"measurement": "% Protection, Subcortical infarct volume", "setting": "[1]; ICV (5 mg/kg) pre-MCAO", "value": 75, "unit": "%"},
      {"measurement": "% Protection, Subcortical penumbra", "setting": "[1]; ICV (5 mg/kg) pre-MCAO", "value": 7, "unit": "%"},
      {"measurement": "% Protection, Total infarct volume", "setting": "[1]; ICV (5 mg/kg) pre-MCAO", "value": 76, "unit": "%"},
      {"measurement": "% Protection, Total ischemic volume", "setting": "[1]; ICV (5 mg/kg) pre-MCAO", "value": 47, "unit": "%"},
      {"measurement": "% Protection, Cortical infarct volume", "setting": "[1]; [5]", "value": 53, "unit": "%"},
      {"measurement": "% Protection, Cortical penumbra", "setting": "[1]; [5]", "value": 10, "unit": "%"},
      {"measurement": "% Protection, Edema", "setting": "[1]; [5]", "value": 26, "unit": "%"},
      {"measurement": "% Protection, Subcortical infarct volume", "setting": "[1]; [5]", "value": 55, "unit": "%"},
      {"measurement": "% Protection, Subcortical penumbra", "setting": "[1]; [5]", "value": 18, "unit": "%"},
      {"measurement": "% Protection, Total infarct volume", "setting": "[1]; [5]", "value": 55, "unit": "%"},
      {"measurement": "% Protection, Total ischemic volume", "setting": "[1]; [5]", "value": 32, "unit": "%"},
      {"measurement": "Effectiveness in protecting OGD RGCs (in words, from Tables 5 and 6)", "setting": "[2]", "value": "more effective overall than the unsubstituted compound"},
      {"measurement": "Percent Increase in Survival over OGD Control Cells", "setting": "[3]; Concn 0.001 μM", "value": "++ (50%-100% increase)"},
      {"measurement": "Percent Increase in Survival over OGD Control Cells", "setting": "[3]; Concn 0.01 μM", "value": "++ (50%-100% increase)"},
      {"measurement": "Percent Increase in Survival over OGD Control Cells", "setting": "[3]; Concn 0.1 μM", "value": "++ (50%-100% increase)"},
      {"measurement": "Percent Increase in Survival over OGD Control Cells", "setting": "[3]; Concn 1 μM", "value": "+++ (>100% increase)"},
      {"measurement": "Percent Increase in Survival over OGD Control Cells", "setting": "[3]; Concn 10 μM", "value": "+++ (>100% increase)"},
      {"measurement": "EC50", "setting": "[4]; [6]", "value": 0.31, "unit": "µM"},
      {"measurement": "TI (therapeutic index)", "setting": "[4]; [6]", "value": ">30"},
      {"measurement": "EC50", "setting": "[4]; [7]", "value": 0.055, "unit": "µM"},
      {"measurement": "TI (therapeutic index)", "setting": "[4]; [7]", "value": ">200"},
      {"measurement": "Protection of cardiac myocytes from apoptotic cell death (in words)", "setting": "[4]; compared to untreated OGD cells, dose dependent, nanomolar concentrations", "value": "protected the cardiac myocytes from apoptotic cell death; also recorded: effective"}
    ]}
  ]
}
